{
  "source": "paper doi:10.1101/2021.04.08.439011v1",
  "about": "(biorxiv, 2021)",
  "key": {"[1]": {"biological_target": "CDKL5 (Homo sapiens, UniProt O76039)", "conditions": "1 µM; binder"}, "[2]": {"biological_target": "CLK2 (Homo sapiens, UniProt P49760)", "sequence (P49760 whole entry)": "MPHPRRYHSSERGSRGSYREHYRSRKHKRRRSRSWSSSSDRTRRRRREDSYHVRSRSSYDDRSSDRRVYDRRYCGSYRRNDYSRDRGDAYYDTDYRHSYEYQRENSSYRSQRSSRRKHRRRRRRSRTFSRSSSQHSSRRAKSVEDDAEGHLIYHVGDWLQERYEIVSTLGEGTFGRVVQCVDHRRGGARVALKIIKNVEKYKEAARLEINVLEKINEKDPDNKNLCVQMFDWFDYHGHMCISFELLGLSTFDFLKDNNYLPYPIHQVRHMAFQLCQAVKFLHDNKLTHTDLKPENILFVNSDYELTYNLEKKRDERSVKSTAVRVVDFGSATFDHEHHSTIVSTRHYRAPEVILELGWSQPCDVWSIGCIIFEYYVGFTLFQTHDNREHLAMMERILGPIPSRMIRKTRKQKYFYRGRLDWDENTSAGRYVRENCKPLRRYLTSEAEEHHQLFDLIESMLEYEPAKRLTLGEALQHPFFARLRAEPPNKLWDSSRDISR", "conditions": "1 µM; binder"}, "[3]": {"biological_target": "HUNK (Homo sapiens, UniProt P57058)", "sequence (P57058 whole entry)": "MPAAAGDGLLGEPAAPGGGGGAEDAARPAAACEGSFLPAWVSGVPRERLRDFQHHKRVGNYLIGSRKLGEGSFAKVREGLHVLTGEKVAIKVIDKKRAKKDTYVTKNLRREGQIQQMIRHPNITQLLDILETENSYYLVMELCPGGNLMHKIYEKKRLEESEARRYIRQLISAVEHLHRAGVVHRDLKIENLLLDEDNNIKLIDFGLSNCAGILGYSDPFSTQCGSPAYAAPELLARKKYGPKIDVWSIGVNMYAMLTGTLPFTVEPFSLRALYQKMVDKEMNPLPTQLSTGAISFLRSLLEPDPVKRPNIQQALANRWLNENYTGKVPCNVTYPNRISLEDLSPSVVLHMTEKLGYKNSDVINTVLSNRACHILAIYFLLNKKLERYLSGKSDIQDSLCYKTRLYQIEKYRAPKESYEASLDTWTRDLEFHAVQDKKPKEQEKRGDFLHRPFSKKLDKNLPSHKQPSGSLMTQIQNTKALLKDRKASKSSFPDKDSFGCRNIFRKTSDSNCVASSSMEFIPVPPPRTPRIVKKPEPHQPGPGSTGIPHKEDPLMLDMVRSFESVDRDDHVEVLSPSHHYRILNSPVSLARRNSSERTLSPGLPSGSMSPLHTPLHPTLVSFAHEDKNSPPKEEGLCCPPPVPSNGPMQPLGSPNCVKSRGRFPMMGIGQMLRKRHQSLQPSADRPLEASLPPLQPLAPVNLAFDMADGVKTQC", "conditions": "1 µM; binder"}, "[4]": {"biological_target": "WEE2 (Homo sapiens, UniProt P0C1S8)", "conditions": "1 µM; binder"}, "[5]": {"biological_target": "IRAK3 (Homo sapiens, UniProt Q9Y616)", "sequence (Q9Y616 whole entry)": "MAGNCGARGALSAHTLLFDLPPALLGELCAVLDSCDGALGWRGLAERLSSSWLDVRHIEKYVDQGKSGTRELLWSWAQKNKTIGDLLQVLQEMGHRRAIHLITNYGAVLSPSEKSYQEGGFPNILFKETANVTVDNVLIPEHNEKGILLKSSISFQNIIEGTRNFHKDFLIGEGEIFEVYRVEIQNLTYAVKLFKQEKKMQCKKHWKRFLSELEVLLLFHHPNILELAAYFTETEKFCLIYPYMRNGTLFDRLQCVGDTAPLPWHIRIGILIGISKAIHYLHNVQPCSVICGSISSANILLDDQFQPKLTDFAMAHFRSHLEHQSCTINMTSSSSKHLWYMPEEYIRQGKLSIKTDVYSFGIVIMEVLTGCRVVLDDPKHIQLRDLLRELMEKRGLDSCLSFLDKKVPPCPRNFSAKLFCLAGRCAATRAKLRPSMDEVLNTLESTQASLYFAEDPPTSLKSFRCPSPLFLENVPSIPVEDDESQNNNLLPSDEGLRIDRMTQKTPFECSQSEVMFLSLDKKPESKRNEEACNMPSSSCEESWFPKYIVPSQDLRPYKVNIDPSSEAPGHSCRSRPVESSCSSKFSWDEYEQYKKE", "conditions": "1 µM; binder"}, "[6]": {"biological_target": "TAK1 (Homo sapiens, UniProt O43318)", "conditions": "1 µM; binder"}, "[7]": {"biological_target": "PIK3C2B (Homo sapiens, UniProt O00750)", "sequence (O00750 whole entry)": "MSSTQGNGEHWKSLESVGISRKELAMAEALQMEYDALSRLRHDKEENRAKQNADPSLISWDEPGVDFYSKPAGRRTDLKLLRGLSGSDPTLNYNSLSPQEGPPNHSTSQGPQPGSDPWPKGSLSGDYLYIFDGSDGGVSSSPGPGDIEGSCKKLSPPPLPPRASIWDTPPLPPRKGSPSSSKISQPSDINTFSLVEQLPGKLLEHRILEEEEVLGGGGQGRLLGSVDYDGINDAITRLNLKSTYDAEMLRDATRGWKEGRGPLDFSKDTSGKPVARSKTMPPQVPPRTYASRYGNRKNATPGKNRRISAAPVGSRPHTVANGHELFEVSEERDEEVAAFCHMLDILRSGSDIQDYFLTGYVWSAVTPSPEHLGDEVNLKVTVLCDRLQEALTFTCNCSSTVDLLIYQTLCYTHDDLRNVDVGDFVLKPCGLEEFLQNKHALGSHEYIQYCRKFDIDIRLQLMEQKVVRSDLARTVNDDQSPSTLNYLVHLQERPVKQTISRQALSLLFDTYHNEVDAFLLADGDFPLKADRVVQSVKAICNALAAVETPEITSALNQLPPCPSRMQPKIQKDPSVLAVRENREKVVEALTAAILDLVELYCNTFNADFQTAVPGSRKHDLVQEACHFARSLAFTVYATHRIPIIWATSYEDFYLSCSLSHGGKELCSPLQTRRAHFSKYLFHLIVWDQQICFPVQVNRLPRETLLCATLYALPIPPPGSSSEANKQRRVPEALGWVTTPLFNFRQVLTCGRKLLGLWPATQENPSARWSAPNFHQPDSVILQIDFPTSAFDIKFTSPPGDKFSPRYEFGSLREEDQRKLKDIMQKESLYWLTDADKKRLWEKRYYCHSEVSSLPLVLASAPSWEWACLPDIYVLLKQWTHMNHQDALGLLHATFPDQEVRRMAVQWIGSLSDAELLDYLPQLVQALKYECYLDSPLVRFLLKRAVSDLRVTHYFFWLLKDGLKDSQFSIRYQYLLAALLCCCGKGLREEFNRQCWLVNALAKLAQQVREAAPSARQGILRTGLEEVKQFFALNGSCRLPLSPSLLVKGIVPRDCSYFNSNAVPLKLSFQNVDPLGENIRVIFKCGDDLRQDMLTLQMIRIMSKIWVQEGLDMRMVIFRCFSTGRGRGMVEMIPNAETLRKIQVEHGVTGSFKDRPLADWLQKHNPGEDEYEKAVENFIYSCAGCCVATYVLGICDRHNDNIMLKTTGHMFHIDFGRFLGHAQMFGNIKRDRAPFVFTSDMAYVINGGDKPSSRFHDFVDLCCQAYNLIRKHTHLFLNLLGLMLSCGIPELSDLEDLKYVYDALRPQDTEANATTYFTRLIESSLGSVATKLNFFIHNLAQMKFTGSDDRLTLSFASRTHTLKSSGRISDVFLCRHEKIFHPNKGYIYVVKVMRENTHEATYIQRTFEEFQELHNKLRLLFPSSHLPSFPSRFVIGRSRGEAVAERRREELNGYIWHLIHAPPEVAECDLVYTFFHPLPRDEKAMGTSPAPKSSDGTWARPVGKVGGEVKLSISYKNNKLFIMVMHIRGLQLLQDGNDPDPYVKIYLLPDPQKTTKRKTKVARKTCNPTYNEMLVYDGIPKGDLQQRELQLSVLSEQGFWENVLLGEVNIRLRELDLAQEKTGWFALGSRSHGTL", "conditions": "1 µM; binder"}, "[8]": {"biological_target": "BLK (Homo sapiens, UniProt P51451)", "conditions": "1 µM; binder"}, "[9]": {"biological_target": "LCK (Homo sapiens, UniProt P06239)", "conditions": "1 µM; binder"}, "[10]": {"biological_target": "CDK8 (Homo sapiens, UniProt P49336)", "conditions": "1 µM; binder"}, "[11]": {"biological_target": "YANK2 (Homo sapiens, UniProt Q9NY57)", "conditions": "1 µM; binder"}, "[12]": {"biological_target": "PAK1 (Homo sapiens, UniProt Q13153)", "conditions": "1 µM; binder"}, "[13]": {"biological_target": "AAK1 (Homo sapiens, UniProt Q2M2I8)", "sequence (Q2M2I8 whole entry)": "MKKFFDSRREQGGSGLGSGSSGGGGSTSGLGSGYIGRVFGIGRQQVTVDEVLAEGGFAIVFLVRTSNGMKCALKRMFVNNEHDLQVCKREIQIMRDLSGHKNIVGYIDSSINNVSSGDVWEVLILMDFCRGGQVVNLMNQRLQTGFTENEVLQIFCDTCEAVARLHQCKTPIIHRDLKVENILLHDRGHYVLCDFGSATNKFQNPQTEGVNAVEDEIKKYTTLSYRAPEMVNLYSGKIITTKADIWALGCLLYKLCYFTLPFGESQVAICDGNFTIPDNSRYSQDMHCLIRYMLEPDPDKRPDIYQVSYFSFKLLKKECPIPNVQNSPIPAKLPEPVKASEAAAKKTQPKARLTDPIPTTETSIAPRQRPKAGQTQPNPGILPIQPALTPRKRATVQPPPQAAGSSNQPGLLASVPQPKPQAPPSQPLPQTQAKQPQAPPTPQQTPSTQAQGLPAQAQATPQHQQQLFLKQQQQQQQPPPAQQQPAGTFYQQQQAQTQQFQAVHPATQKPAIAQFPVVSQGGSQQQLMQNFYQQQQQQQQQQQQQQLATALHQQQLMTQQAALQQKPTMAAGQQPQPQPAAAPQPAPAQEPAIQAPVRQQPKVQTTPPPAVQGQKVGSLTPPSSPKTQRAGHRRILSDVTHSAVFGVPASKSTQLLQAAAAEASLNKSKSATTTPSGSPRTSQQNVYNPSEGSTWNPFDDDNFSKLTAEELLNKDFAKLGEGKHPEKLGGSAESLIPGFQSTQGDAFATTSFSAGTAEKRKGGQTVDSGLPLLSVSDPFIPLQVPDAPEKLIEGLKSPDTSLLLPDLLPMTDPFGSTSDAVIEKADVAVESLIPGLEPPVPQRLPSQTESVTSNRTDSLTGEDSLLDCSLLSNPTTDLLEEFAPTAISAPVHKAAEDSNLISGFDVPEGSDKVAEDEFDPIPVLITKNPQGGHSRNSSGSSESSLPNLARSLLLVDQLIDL", "conditions": "1 µM; binder"}, "[14]": {"biological_target": "CSNK1G3 (Homo sapiens, UniProt Q9Y6M4)", "conditions": "1 µM; binder"}, "[15]": {"biological_target": "RET(V804L) (Homo sapiens, UniProt P07949, V804L)", "conditions": "1 µM; binder"}, "[16]": {"biological_target": "PAK4 (Homo sapiens, UniProt O96013)", "conditions": "1 µM; binder"}, "[17]": {"biological_target": "JAK2 (Homo sapiens, UniProt O60674)", "conditions": "JH1 domain catalytic; binder"}, "[18]": {"biological_target": "YES (Homo sapiens, UniProt P07947)", "conditions": "1 µM; binder"}, "[19]": {"biological_target": "DCAMKL2 (Homo sapiens, UniProt Q8N568)", "conditions": "1 µM; binder"}, "[20]": {"biological_target": "BRAF (Homo sapiens, UniProt P15056)", "conditions": "1 µM; binder"}, "[21]": {"biological_target": "RAF1 (Homo sapiens, UniProt P04049)", "conditions": "1 µM; binder"}, "[22]": {"biological_target": "ERN1 (Homo sapiens, UniProt O75460)", "conditions": "1 µM; binder"}, "[23]": {"biological_target": "CDK4-cyclinD1 (Homo sapiens, UniProt P11802)", "conditions": "1 µM; binder"}, "[24]": {"biological_target": "DCAMKL1 (Homo sapiens, UniProt O15075)", "conditions": "1 µM; binder"}, "[25]": {"biological_target": "IKK-beta (Homo sapiens, UniProt O14920)", "conditions": "1 µM; binder"}, "[26]": {"biological_target": "PIP5K1C (Homo sapiens, UniProt O60331)", "sequence (O60331 whole entry)": "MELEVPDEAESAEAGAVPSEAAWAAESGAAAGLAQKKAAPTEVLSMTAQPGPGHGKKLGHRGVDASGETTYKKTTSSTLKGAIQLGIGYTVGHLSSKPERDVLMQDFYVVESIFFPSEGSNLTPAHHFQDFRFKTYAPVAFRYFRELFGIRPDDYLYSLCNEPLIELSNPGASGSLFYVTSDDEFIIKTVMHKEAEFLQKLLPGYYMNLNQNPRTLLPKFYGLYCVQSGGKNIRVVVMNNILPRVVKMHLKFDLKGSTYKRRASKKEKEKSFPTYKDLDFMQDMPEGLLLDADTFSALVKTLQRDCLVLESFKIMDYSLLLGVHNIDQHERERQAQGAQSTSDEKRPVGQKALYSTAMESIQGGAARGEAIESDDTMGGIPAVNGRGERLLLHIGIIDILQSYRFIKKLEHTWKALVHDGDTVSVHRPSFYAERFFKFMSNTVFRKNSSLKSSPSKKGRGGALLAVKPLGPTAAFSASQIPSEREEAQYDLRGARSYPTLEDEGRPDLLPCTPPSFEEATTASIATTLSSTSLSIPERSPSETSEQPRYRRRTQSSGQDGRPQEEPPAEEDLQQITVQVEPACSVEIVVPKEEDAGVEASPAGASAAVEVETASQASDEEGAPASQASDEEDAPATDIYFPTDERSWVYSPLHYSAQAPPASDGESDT", "conditions": "1 µM; binder"}, "[27]": {"biological_target": "MYLK2 (Homo sapiens, UniProt Q9H1R3)", "conditions": "1 µM; binder"}, "[28]": {"biological_target": "STK39 (Homo sapiens, UniProt Q9UEW8)", "conditions": "1 µM; binder"}, "[29]": {"biological_target": "MTOR (Homo sapiens, UniProt P42345)", "conditions": "1 µM; binder"}, "[30]": {"biological_target": "TRKC (Homo sapiens, UniProt Q16288)", "conditions": "1 µM; binder"}, "[31]": {"biological_target": "LZK (Homo sapiens, UniProt O43283)", "conditions": "1 µM; binder"}},
  "data": [
    {"smiles": "CNc1ncc2cc(-c3ccc(-c4cccc(C)n4)cc3Cl)c(=O)n(C[C@H]3OC[C@H](N)CO3)c2n1", "note": "[compound 6, G-5555]", "values": [
      {"measurement": "Percent Control", "setting": "[1]", "value": 97, "unit": "%"},
      {"measurement": "Percent Control", "setting": "[2]", "value": 100, "unit": "%"},
      {"measurement": "Percent Control", "setting": "[3]", "value": 100, "unit": "%"},
      {"measurement": "Percent Control", "setting": "[4]", "value": 100, "unit": "%"},
      {"measurement": "Percent Control", "setting": "[5]", "value": 92, "unit": "%"},
      {"measurement": "Percent Control", "setting": "[6]", "value": 92, "unit": "%"},
      {"measurement": "Percent Control", "setting": "[7]", "value": 100, "unit": "%"},
      {"measurement": "Percent Control", "setting": "[8]", "value": 99, "unit": "%"},
      {"measurement": "Percent Control", "setting": "[9]", "value": 11, "unit": "%"},
      {"measurement": "Percent Control", "setting": "[10]", "value": 100, "unit": "%"},
      {"measurement": "Percent Control", "setting": "[11]", "value": 0, "unit": "%"},
      {"measurement": "Percent Control", "setting": "[12]", "value": 4.5, "unit": "%"},
      {"measurement": "Percent Control", "setting": "[13]", "value": 100, "unit": "%"},
      {"measurement": "Percent Control", "setting": "[14]", "value": 100, "unit": "%"},
      {"measurement": "Percent Control", "setting": "[15]", "value": 100, "unit": "%"},
      {"measurement": "Percent Control", "setting": "[16]", "value": 77, "unit": "%"},
      {"measurement": "Percent Control", "setting": "[17]", "value": 83, "unit": "%"},
      {"measurement": "Percent Control", "setting": "[18]", "value": 100, "unit": "%"},
      {"measurement": "Percent Control", "setting": "[19]", "value": 51, "unit": "%"},
      {"measurement": "Percent Control", "setting": "[20]", "value": 100, "unit": "%"},
      {"measurement": "Percent Control", "setting": "[21]", "value": 100, "unit": "%"},
      {"measurement": "Percent Control", "setting": "[22]", "value": 100, "unit": "%"},
      {"measurement": "Percent Control", "setting": "[23]", "value": 99, "unit": "%"},
      {"measurement": "Percent Control", "setting": "[24]", "value": 79, "unit": "%"},
      {"measurement": "Percent Control", "setting": "[25]", "value": 80, "unit": "%"},
      {"measurement": "Percent Control", "setting": "[26]", "value": 100, "unit": "%"},
      {"measurement": "Percent Control", "setting": "[27]", "value": 81, "unit": "%"},
      {"measurement": "Percent Control", "setting": "[28]", "value": 100, "unit": "%"},
      {"measurement": "Percent Control", "setting": "[29]", "value": 83, "unit": "%"},
      {"measurement": "Percent Control", "setting": "[30]", "value": 96, "unit": "%"},
      {"measurement": "Percent Control", "setting": "[31]", "value": 100, "unit": "%"}
    ]}
  ]
}
